# Test results: patent publication US10435376B2, “Derivatives of 1H-imidazole-4,5-dicarboxamide and use thereof in preparation of anticoccidial drugs” (GUANGZHOU INSIGHTER BIOTECHNOLOGY CO., LTD., priority 2015, dated 2019)
# What was measured:
# Format in all cases: in vivo
# Eimeria necatrix = experiment: Inhibitory effects of the derivatives on Eimeria necatrix of chicken; conditions: for anticoccidial activity in view of survival rate, bloody stool score and relative weight gain: 60 ppm, E. necatrix; for responders at 60 ppm, 60 µg/mL / response vs control in vivo at 60 ppm, 60 µg/mL: Eimeria necatrix, 168 h; for responders at 60 ppm, 60 µg/mL: read-out: Survival rate (%); for response vs control in vivo at 60 ppm, 60 µg/mL: feed or water, read-out: Relative weight gain (%); for response vs control in vivo at 60 ppm, 60 µg/mL / Score (bloody stool score): broilers, 60 ppm in feed, 100,000 E. necatrix oocysts; for Score (bloody stool score): 5 days after inoculation
# Experimental: (§1) Bloody stool score: 0, no bloody stool was observed; 1, bloody stool below 25%; 2, 25 to 50% of bloody stool; 3, 50 to 75% of bloody stool; and 4, bloody stool over 75%.
# (§2) Relative weight gain (%): The broilers were weighed at the beginning and the end of the trial to calculate the average weight gain and relative weigh gain. Relative weight gain=(average weight gain of each group/average weight gain of group 1)×100%.
# (§3) Deaths of the broilers: Necropsy was performed and the amount of dead broilers in each group was recorded to calculate the survival rate. Survival rate=(total amount of the broilers in each group−amount of deaths caused by coccidial infection)/total amount of the broilers in each group×100%.
# (§4) One-day-old yellow-feather fast-growing broilers were raised in a coccidia-free environment, and divided into groups for trial at the age of 18 days when no coccidian oocysts were detected by microscopy in their faeceas. Weak or overweight broilers were removed, and healthy broilers were divided into 10 groups with 50 broilers in each group and weight difference between each two broilers was below 20 g. Groups 1 and 2 were respectively a control group that the broilers were neither infected nor treated, and a control group that the broilers were infected but not treated. Groups 3 to 10 were respectively administrated with different derivatives. The broilers were given ad libitum access to feed and water when the feed was added with different medicines according to Table 4 at the day the broilers were divided. 24 Hours after the trial began, 100,000 sporulated Eimeria necatrix oocysts were inoculated via an oral gavage into the crop of every broiler in each group except group 1. Bloody stool score was measured 5 days after the inoculation and the trial was ended 7 days after the inoculation. Relative weight gain (%), survival rate (%) and the bloody stool score were evaluated (according to embodiment 2).
# Eimeria acervulina = experiment: Inhibitory effects of the derivatives on Eimeria acervulina of chicken; conditions: for anticoccidial activity in view of survival rate, relative weight gain and feed conversion ratio: 60 ppm, E. acervulina; for responders at 60 ppm, 60 µg/mL / response vs control in vivo at 60 ppm, 60 µg/mL: Eimeria acervulina, 168 h; for responders at 60 ppm, 60 µg/mL / response vs control in vivo at 60 ppm, 60 µg/mL / Feed conversion ratio: broilers, 60 ppm in feed, 400,000 E. acervulina oocysts; for responders at 60 ppm, 60 µg/mL: 7 days after inoculation, read-out: Survival rate (%); for response vs control in vivo at 60 ppm, 60 µg/mL: feed or water, read-out: Relative weight gain (%)
# Experimental: as §2, §3
# as §4, with “Table 3” for “Table 4”, “began, 400,000” for “began, 100,000”, “Eimeria acervulina” for “Eimeria necatrix”, “1. The” for “1. Bloody stool score was measured 5 days after the inoculation and the”, “and feed conversion ratio” for “and the bloody stool score”, “were evaluated.” for “were evaluated (according to embodiment 2).”
# Eimeria tenella [1] = experiment: Inhibitory effects of the derivatives on Eimeria tenella of chicken (60 ppm in feed); conditions: for anticoccidial activity in view of survival rate, bloody stool score and relative weight gain: 60 ppm, E. tenella; for responders at 60 ppm, 60 µg/mL / response vs control in vivo at 60 ppm, 60 µg/mL: Eimeria tenella, 168 h; for responders at 60 ppm, 60 µg/mL / response vs control in vivo at 60 ppm, 60 µg/mL / Score (bloody stool score): broilers, 60 ppm in feed, 250,000 E. tenella oocysts; for responders at 60 ppm, 60 µg/mL: 7 days after inoculation, read-out: Survival rate (%); for response vs control in vivo at 60 ppm, 60 µg/mL: relative to group 1 (not infected, not treated), read-out: Relative weight gain (%); for Score (bloody stool score): 5 days after inoculation
# Text: as §4, with “into 30” for “into 10”, “to 30” for “to 10”, “Table 1” for “Table 4”, “began, 250,000” for “began, 100,000”, “Eimeria tenella” for “Eimeria necatrix”, “were evaluated.” for “were evaluated (according to embodiment 2).”
# as §1, §2, §3
# Eimeria tenella [2] = experiment: Inhibitory effects of the derivatives of different dosages on Eimeria tenella of chicken; set-up: key to Score (bloody stool score): 0 = no bloody stool to 4 = bloody stool over 75%; conditions: broilers, E. tenella; for Score (bloody stool score): 5 days after inoculation
# Experimental: as §1, §2, §3
# One-day-old yellow-feather fast-growing broilers were raised in a coccidia-free environment, and divided into groups for trial at the age of 18 days when no coccidian oocysts were detected by microscopy in their faeceas. Weak or overweight broilers were removed, and healthy broilers were divided into 16 groups with 50 broilers in each group and weight difference between each two broilers was below 20 g. Groups 1 and 2 were respectively a control group that the broilers were neither infected nor treated, and a control group that the broilers were infected but not treated. Groups 3 to 16 were respectively administrated with different kinds or different dosages of derivatives. The broilers were given ad libitum access to feed and water when the feed was added with different medicines according to Table 2 at the day the broilers were divided. 24 Hours after the trial began, 250,000 sporulated Eimeria tenella oocysts were inoculated via an oral gavage into the crop of every broiler in each group except group 1. Bloody stool score was measured 5 days after the inoculation and the trial was ended 7 days after the inoculation. Relative weight gain (%), survival rate (%) and the bloody stool score were evaluated (according to embodiment 2).
compound,measurement,setting,value
"NC(=O)c1ncn(Cc2ccccc2F)c1C(N)=O [IST15043, 1-(2-fluorobenzyl)-1H-imidazole-4,5-dicarboxamide]","anticoccidial activity in view of survival rate, bloody stool score and relative weight gain",Eimeria necatrix,highest anticoccidial activities
same,"responders at 60 ppm, 60 µg/mL",Eimeria necatrix,100%
same,"response vs control in vivo at 60 ppm, 60 µg/mL",Eimeria necatrix,102%
same,Score (bloody stool score),Eimeria necatrix,0
same,"anticoccidial activity in view of survival rate, relative weight gain and feed conversion ratio",Eimeria acervulina,highest anticoccidial activities
same,"responders at 60 ppm, 60 µg/mL",Eimeria acervulina,100%
same,"response vs control in vivo at 60 ppm, 60 µg/mL",Eimeria acervulina,99.4%
same,Feed conversion ratio,Eimeria acervulina,2.139
same,"anticoccidial activity in view of survival rate, bloody stool score and relative weight gain",Eimeria tenella [1],highest anticoccidial activities
same,"responders at 60 ppm, 60 µg/mL",Eimeria tenella [1],100%
same,"response vs control in vivo at 60 ppm, 60 µg/mL",Eimeria tenella [1],98.7%
same,Score (bloody stool score),Eimeria tenella [1],0
"NC(=O)c1ncn(Cc2c(F)cccc2Cl)c1C(N)=O [IST15031, 1-(2-chloro-6-fluorobenzyl)-1H-imidazole-4,5-dicarboxamide]","anticoccidial activity in view of survival rate, bloody stool score and relative weight gain",Eimeria necatrix,highest anticoccidial activities
same,"responders at 60 ppm, 60 µg/mL",Eimeria necatrix,100%
same,"response vs control in vivo at 60 ppm, 60 µg/mL",Eimeria necatrix,92.5%
same,Score (bloody stool score),Eimeria necatrix,1 (bloody stool below 25%)
same,Relative weight gain (%),Eimeria tenella [2]; 5 ppm in feed,67.8%
same,Survival rate (%),Eimeria tenella [2]; 5 ppm in feed,76%
same,Score (bloody stool score),Eimeria tenella [2]; 5 ppm in feed,4 (bloody stool over 75%)
same,Relative weight gain (%),Eimeria tenella [2]; 10 ppm in feed,72.3%
same,Survival rate (%),Eimeria tenella [2]; 10 ppm in feed,88%
same,Score (bloody stool score),Eimeria tenella [2]; 10 ppm in feed,4 (bloody stool over 75%)
same,Relative weight gain (%),Eimeria tenella [2]; 20 ppm in feed,79.8%
same,Survival rate (%),Eimeria tenella [2]; 20 ppm in feed,100%
same,Score (bloody stool score),Eimeria tenella [2]; 20 ppm in feed,2 (25 to 50% of bloody stool)
same,Relative weight gain (%),Eimeria tenella [2]; 50 ppm in feed,90.5%
same,Survival rate (%),Eimeria tenella [2]; 50 ppm in feed,100%
same,Score (bloody stool score),Eimeria tenella [2]; 50 ppm in feed,1 (bloody stool below 25%)
same,Relative weight gain (%),Eimeria tenella [2]; 100 ppm in feed,98.9%
same,Survival rate (%),Eimeria tenella [2]; 100 ppm in feed,100%
same,Score (bloody stool score),Eimeria tenella [2]; 100 ppm in feed,0
same,Relative weight gain (%),Eimeria tenella [2]; 200 ppm in feed,102.5%
same,Survival rate (%),Eimeria tenella [2]; 200 ppm in feed,100%
same,Score (bloody stool score),Eimeria tenella [2]; 200 ppm in feed,0
same,Relative weight gain (%),Eimeria tenella [2]; 500 ppm in feed,100.4%
same,Survival rate (%),Eimeria tenella [2]; 500 ppm in feed,100%
same,Score (bloody stool score),Eimeria tenella [2]; 500 ppm in feed,0
same,"anticoccidial activity in view of survival rate, relative weight gain and feed conversion ratio",Eimeria acervulina,highest anticoccidial activities
same,"responders at 60 ppm, 60 µg/mL",Eimeria acervulina,100%
same,"response vs control in vivo at 60 ppm, 60 µg/mL",Eimeria acervulina,94.8%
same,Feed conversion ratio,Eimeria acervulina,2.179
same,"anticoccidial activity in view of survival rate, bloody stool score and relative weight gain",Eimeria tenella [1],highest anticoccidial activities
same,"responders at 60 ppm, 60 µg/mL",Eimeria tenella [1],100%
same,"response vs control in vivo at 60 ppm, 60 µg/mL",Eimeria tenella [1],95.8%
same,Score (bloody stool score),Eimeria tenella [1],1 (bloody stool below 25%)
"NC(=O)c1ncn(Cc2ccc([N+](=O)[O-])cc2)c1C(N)=O [IST15045, 1-(4-nitrobenzyl)-1H-imidazole-4,5-dicarboxamide]","anticoccidial activity in view of survival rate, bloody stool score and relative weight gain",Eimeria necatrix,highest anticoccidial activities
same,"responders at 60 ppm, 60 µg/mL",Eimeria necatrix,100%
same,"response vs control in vivo at 60 ppm, 60 µg/mL",Eimeria necatrix,102%
same,Score (bloody stool score),Eimeria necatrix,0
same,"anticoccidial activity in view of survival rate, relative weight gain and feed conversion ratio",Eimeria acervulina,highest anticoccidial activities
same,"responders at 60 ppm, 60 µg/mL",Eimeria acervulina,100%
same,"response vs control in vivo at 60 ppm, 60 µg/mL",Eimeria acervulina,98.7%
same,Feed conversion ratio,Eimeria acervulina,2.158
same,"anticoccidial activity in view of survival rate, bloody stool score and relative weight gain",Eimeria tenella [1],highest anticoccidial activities
same,"responders at 60 ppm, 60 µg/mL",Eimeria tenella [1],100%
same,"response vs control in vivo at 60 ppm, 60 µg/mL",Eimeria tenella [1],104%
same,Score (bloody stool score),Eimeria tenella [1],0
"CCCn1cnc(C(N)=O)c1C(N)=O [IST15038, 1-propyl-1H-imidazole-4,5-dicarboxamide]","responders at 60 ppm, 60 µg/mL",Eimeria necatrix,100%
same,"response vs control in vivo at 60 ppm, 60 µg/mL",Eimeria necatrix,79.5%
same,Score (bloody stool score),Eimeria necatrix,2 (25 to 50% of bloody stool)
same,"responders at 60 ppm, 60 µg/mL",Eimeria acervulina,100%
same,"response vs control in vivo at 60 ppm, 60 µg/mL",Eimeria acervulina,73.8%
same,Feed conversion ratio,Eimeria acervulina,2.135
same,"responders at 60 ppm, 60 µg/mL",Eimeria tenella [1],100%
same,"response vs control in vivo at 60 ppm, 60 µg/mL",Eimeria tenella [1],82.1%
same,Score (bloody stool score),Eimeria tenella [1],3 (50 to 75% of bloody stool)
"NC(=O)c1ncn(Cc2ccc(Cl)cc2)c1C(N)=O [IST15037, 1-(4-chlorobenzyl)-1H-imidazole-4,5-dicarboxamide]","anticoccidial activity in view of survival rate, bloody stool score and relative weight gain",Eimeria necatrix,highest anticoccidial activities
same,"responders at 60 ppm, 60 µg/mL",Eimeria necatrix,100%
same,"response vs control in vivo at 60 ppm, 60 µg/mL",Eimeria necatrix,98.9%
same,Score (bloody stool score),Eimeria necatrix,0
same,"anticoccidial activity in view of survival rate, relative weight gain and feed conversion ratio",Eimeria acervulina,highest anticoccidial activities
same,"responders at 60 ppm, 60 µg/mL",Eimeria acervulina,100%
same,"response vs control in vivo at 60 ppm, 60 µg/mL",Eimeria acervulina,98.5%
same,Feed conversion ratio,Eimeria acervulina,2.148
same,"anticoccidial activity in view of survival rate, bloody stool score and relative weight gain",Eimeria tenella [1],highest anticoccidial activities
same,"responders at 60 ppm, 60 µg/mL",Eimeria tenella [1],100%
same,"response vs control in vivo at 60 ppm, 60 µg/mL",Eimeria tenella [1],99.2%
same,Score (bloody stool score),Eimeria tenella [1],0
